# Measured values published in patent US5470879A, “Treatment of non-insulin-dependent diabetes” (Laboratories Monal, priority 1992, dated 1995).
# Like-named read-outs stand apart in the source and are kept apart here.
# Assays:
# [1] = test system: isolated islets of Langerhans of rat pancreas; test: Insulin secretion of isolated islets of Langerhans of rat pancreas (8.3 mM glucose, 1 hour); format: cell-based, Wistar rats
# Description: (§1) In these examples, the pancreatic hormones (insulin and glucagon) were evaluated by radioimmunoassays.
# This method, which has the advantage of necessitating only a small amount of substance, permits a direct study of the effects of the composition on pancreatic endocrine cells, especially insulin-secreting B cells, to the exclusion of any interference with the exocrine and related tissues.
# The effect of different concentrations of 4-hydroxyisoleucine on insulin secretion was investigated on isolated islets of Wistar rats, incubated in the presence of 8.3 mM glucose (1.5 g/l) for 1 hour. The results obtained are recorded in FIG. 1, in which the histograms represent the insulin secretion measured over 60 minutes for each dose of 4-hydroxyisoleucine.
# By way of comparison, the effects of two structural analogues of 4-hydroxyisoleucine, i.e. isoleucine and leucine, were observed under the same conditions, and it could be established that, with these two substances, the stimulatory effect on insulin secretion is apparent only with concentrations 50 to 100 times as high.
# [2] = test system: isolated and perfused rat pancreas; test: Isolated and perfused rat pancreas: insulin secretion, vascular flow, glucagon (8.3 mM glucose); conditions: for Insulin secretion: glucose alone 810 ± 83
# Description: as §1
# To carry out this test, the pancreas was completely isolated from all the other neighbouring organs and tissues (spleen, stomach, duodenum, epiploic fat) and perfused in an open circuit with a physiological solution in a perfusion chamber. This preparation has the advantage of preserving the functional and vascular integrity of the organ while depriving it of the regulatory influences (humoral or nervous) to which it is normally subjected.
# In this example, the experiments were carried out in the presence of an 8.3 mM concentration of glucose. Under these conditions, the effect on insulin secretion of a perfusion of 4-hydroxyisoleucine at a concentration of 200 μM for 10 minutes was studied. […] The perfusion of the 4-hydroxyisoleucine is indicated by the rectangular box with the lines extending downwardly from opposite sides of the box, near the top of the Figure.
# The amounts of insulin secreted during the 10 minutes of perfusion are shown below: […]
# [3] = format: in vivo, Wistar rats
# Description: as §1
# (§2) Blood sugar level was assayed using a Technicon autoanalyzer by the potassium ferricyanide method.
# The results were subjected to a variance analysis followed by the multiple comparison test.
# (§3) During this experiment, Wistar rats were anaesthetized and then provided with catheters in both jugular veins. One catheter enables blood samples needed for the assay of plasma glucose and plasma insulin to be taken, the other catheter is used for the intravenous injection of the test substance.
# [4] = Intravenous glucose tolerance test (IVGTT) in anaesthetized normal rats fed ad libitum; format: in vivo
# Description: as §2, §3
# Still in anaesthetized normal rats previously fed ad libitum, an intravenous glucose tolerance test was carried out.
# Dissolved glucose was administered intravenously at a dose of 0.3 g/kg in one of the two jugular veins of the rat. […] In FIG. 3, "o" indicates the values observed when administering glucose alone, while ".cndot." indicates the values observed during the administration of glucose plus 4-hydroxyisoleucine.
# [5] = Gastric intubation in fasted conscious normal dogs: blood insulin and sugar levels; format: in vivo; conditions: 9 mg/kg by gastric intubation
# Description: as §1, §2
# During a complementary experiment in dogs, we investigated whether 4-hydroxyisoleucine can be active after oral administration, and whether, in this case, this substance retains its insulin-secreting property and consequently its capacity to improve glucose tolerance.
# (§4) Using conscious normal dogs kept fasted for 18 hours, 4-hydroxyisoleucine is dissolved in physiological saline and administered by gastric intubation at a dose of 9 mg/kg.
# Blood samples drawn from one of the two jugular veins enabled the blood insulin and sugar levels of these animals to be evaluated. […] The arrows near the top of FIGS. 4A and 4B represent the approximate time of administration of the 4-hydroxyisoleucine.
# [6] = Orally induced hyperglycaemia (OGTT) in fasted conscious normal dogs; format: in vivo
# Description: as §2, §4
# Dissolved glucose was administered by gastric intubation at a dose of 1 g/kg.
# In FIG. 5, "o" represents values observed upon administering glucose alone; ".cndot." represents values observed in a trial in which glucose plus 4-hydroxyisoleucine is administered. The arrow toward the top of FIG. 5 represents the point of administration of the glucose or glucose plus 4-hydroxyisoleucine. When 4-hydroxyisoleucine (9 mg/kg) is added to the glucose solution administered by gastric intubation, the blood sugar level reaches only 120 mg/dl at the 30th minute, i.e. only +31%.
# [7] = Acute intraperitoneal toxicity in Swiss mice; format: in vivo
# Description: The acute toxicity was determined in Swiss mice of both sexes on intraperitoneal administration of a single dose of 1 gram per kilo of 4-hydroxyisoleucine. […] The LDo (zero lethal dose) is greater than 1 gram per kilo under our experimental conditions.
# [8] = 9 mg/kg I.V., -2 min (before injection)
# [9] = 9 mg/kg I.V., -10 min (before injection)
# [10] = 9 mg/kg I.V., -15 min (before injection)
smiles,measurement,setting,value
C[C@@H]([C@H](C)O)[C@H](N)C(=O)O [4-hydroxyisoleucine],minimal effective concentration,"[1]; Rattus norvegicus, 1 h, read-out: concentration at which a stimulatory effect on insulin secretion is apparent",200 µM
same,dose dependence of stimulation of insulin secretion,"[1]; isolated rat islets, 8.3 mM glucose",increases slightly with the dose
same,mode of stimulation of insulin secretion,"[1]; summary of ""in vitro"" tests",direct effect on the B cell of the islet of Langerhans
same,Insulin secretion,[2]; 50 μM,1232 ± 93 ng/10 min
same,Insulin secretion,[2]; 200 μM,1520 ± 154 ng/10 min
same,effect on insulin secretion (time course),"[2]; 200 μM, perfusion for 10 minutes","stimulation is immediate and in two phases, and persists throughout the period of the perfusion"
same,Insulin secretion,[2]; 500 μM,2206 ± 213 ng/10 min
same,concentration dependence of stimulatory effect on insulin secretion,[2]; 50 to 500 μM,stimulatory effect increases with the 4-hydroxyisoleucine concentration
same,pancreatic vascular flow and level of pancreatic glucagon,[2]; during perfusion,no modification
same,effect on plasma insulin level,[3]; 9 mg/kg I.V.,immediate and particularly important increase
same,time after injection at which reduction in circulating glucose level becomes significant,[3]; 9 mg/kg I.V.,15 min
same,Blood sugar level,"[3]; 9 mg/kg I.V., 2 min",1.26 ± 0.08 g/L
same,Plasma insulin,"[3]; 9 mg/kg I.V., 2 min",4.4 ± 1.1 ng/mL
same,Blood sugar level,"[3]; 9 mg/kg I.V., 5 min",1.18 ± 0.04 g/L
same,Plasma insulin,"[3]; 9 mg/kg I.V., 5 min",9.1 ± 1.0 ng/mL
same,Blood sugar level,"[3]; 9 mg/kg I.V., 15 min",0.94 ± 0.09 g/L
same,Plasma insulin,"[3]; 9 mg/kg I.V., 15 min",18.5 ± 1.5 ng/mL
same,Blood sugar level,"[3]; 9 mg/kg I.V., 30 min",0.99 ± 0.10 g/L
same,Plasma insulin,"[3]; 9 mg/kg I.V., 30 min",18.6 ± 1.5 ng/mL
same,Blood sugar level,"[3]; 9 mg/kg I.V., 45 min",0.99 ± 0.12 g/L
same,Plasma insulin,"[3]; 9 mg/kg I.V., 45 min",14.5 ± 4.8 ng/mL
same,Blood sugar level,"[3]; 9 mg/kg I.V., 60 min",0.94 ± 0.10 g/L
same,Plasma insulin,"[3]; 9 mg/kg I.V., 60 min",14.4 ± 4.8 ng/mL
same,Blood sugar level,"[3]; 9 mg/kg I.V., 90 min",0.89 ± 0.12 g/L
same,Plasma insulin,"[3]; 9 mg/kg I.V., 90 min",14.9 ± 5.2 ng/mL
same,Blood sugar level,[3]; [8],1.34 ± 0.07 g/L
same,Plasma insulin,[3]; [8],3.4 ± 1.1 ng/mL
same,Blood sugar level,[3]; [9],1.38 ± 0.09 g/L
same,Plasma insulin,[3]; [9],2.4 ± 0.1 ng/mL
same,Blood sugar level,[3]; [10],1.32 ± 0.09 g/L
same,Plasma insulin,[3]; [10],2.8 ± 0.2 ng/mL
same,reduction in circulating glucose level relative to the starting value,"[3]; 9 mg/kg I.V., at the 90th minute",approximately 30%
same,"side effect secondary to the injection (polypnea, tachycardia, hypoxia)","[3]; I.V. injection, anaesthetized rats",no side effect
same,effect on induced hyperglycaemia,[4]; 9 mg/kg I.V. with glucose 0.3 g/kg I.V.,markedly reduced
same,Blood sugar level,"[4]; 9 mg/kg I.V. with glucose 0.3 g/kg I.V., 3rd minute, glucose alone 282 mg/dl",204 mg/dL
same,change in blood sugar level,"[4]; 9 mg/kg I.V. with glucose 0.3 g/kg I.V., 3rd minute, glucose alone +112%",+58%
same,glucose tolerance,"[4]; rat, intravenously, summary statement",improves glucose tolerance
same,duration of hyperinsulinaemia,[5]; fasted,5 min
same,effect on blood sugar level,[5]; fasted,gradual and discrete reduction in blood sugar level
same,rise in blood insulin level,[5]; from the 3rd minute,+277%
same,Blood sugar level,"[6]; 9 mg/kg intragastric with glucose 1 g/kg, 30th minute, glucose alone 166 mg/dl",120 mg/dL
same,change in blood sugar level,"[6]; 9 mg/kg intragastric with glucose 1 g/kg, 30th minute, glucose alone +85%",+31%
same,glucose tolerance,"[6]; dog, orally, summary statement",improves glucose tolerance
same,macroscopic deleterious effect on the main organs at autopsy,"[7]; 1 gram per kilo intraperitoneal, thymus, heart, lungs, liver, stomach, kidneys, adrenals, pancreas, duodenum, genital tract, bladder",does not appear to disclose any macroscopic deleterious effect
same,LDo (zero lethal dose),"[7]; intraperitoneal, single dose",greater than 1 gram per kilo
same,toxic phenomenon over 15 days,[7]; single dose 1 gram per kilo intraperitoneal,does not appear to detect any toxic phenomenon
